US20260042801A1, “COMPOSITIONS AND METHODS FOR DYE-BOUND CYCLIZED PEPTIDES FOR MEDICAL USE” (The Texas A&M University System, priority 2022, published 2026)

How the values were obtained:
[1] = system: primary adult cortical astrocytes; assay: Astrocyte scratch assay (injury model); format: cell-based, mouse; conditions: astrocytes from 6-month-old female mice, 48 hours after scratching
Method: FIGS. 5A-5C: 5c(i) reduces injury size. Primary adult cortical astrocytes from 6-month-old female mice were scratched to form the injury model and immediately after were incubated with 5c(i) for 48 hours (5A). Graph represents mean t SEM. Images represent the 5B) Vehicle and 5C) 5000 nM 5c(i) treated groups stained with Phalloidin. Linear regression was conducted to determine statistical significance. N=10. Scale bar=500 μm.
For neuronal cultures, the neuron enriched fraction was added onto plastic bottom (Greiner-Bio, 781091) plates and incubated inside a 5% C02 incubator at 37° C. for 2 days. Pharmaceutical agents were added at the time of cell plating. For astrocyte cultures, the glia fraction was added onto plastic bottom (Greiner-Bio, 781091) plates and incubated inside a 5% C02 incubator at 37° C. for 5 days for 100% confluency to be reached. Then, the astrocytes were scratched to form the scratch assay model and the pharmaceutical agents were added at the time of scratching. 10,000 cells were plated per well with 0.056 cm^2 growth area for both the neuronal and glia cultures.
Cell cultures were fixed with 4% paraformaldehyde (PFA, 15 min) after the completion of the respective in vitro experiment. […]

[2] = system: severe T8 contusion/compression SCI; assay: Preclinical SCI model: histological analysis of spinal cord; format: in vivo, mouse; conditions: 7 weeks post injury
From the text: FIGS. 11A-11E: Histological analysis of spinal cords after 5c(i) treatment. […] 7 weeks post injury, spinal cords were sectioned sagittal to conduct histological analyses. Value of 11A) change in intensity of 5-HT, average fluorescence intensity of 11B) IBA1 and 11C) CD68, and number of 11D) CD68+ and 11E) SOX9+ cells in relation to distance from injury (− value represents rostral to injury, + value represents caudal to injury). […] N=6-8. Graphs show mean and SEM. […] Student's T-test.
Mice were sacrificed 7 weeks after injury by a lethal dose of Fatal plus (pentobarbital), then, transcardial perfusion was performed with PBS-Heparin (10,000 unit/L, 20 mL, 5 mL/min) followed by a 4% paraformaldehyde fixative solution (30 mL/mouse, at 5 mL/min). Right after perfusion, tissues were immersed in 4% PFA for 24 hours, transferred to 15% sucrose for 24 hours, then transferred to 30% sucrose for 24 hours before being embedded. Subsequently, the spinal cords (at injury site±1 mm) were cut into 25 μm-thick transverse sections using a freezing microtome (THERMO FISHER SCIENTIFIC® (laboratory reagents), Microm HM550). For immunohistochemistry (IHC), the spinal cord tissue sections were placed in a blocking solution (5% BSA, 0.4% Triton X-100, PBS) for 1 hour at room temperature. This was followed by overnight incubation with primary antibodies at room temperature. The tissue sections were subsequently washed 3 times with 0.4% Triton X-100-PBS, followed by 1 hour incubation at room temperature with the appropriate secondary antibodies (1:500, INVITROGEN™ (laboratory reagents) ALEXA FLUOR® (fluorescent dyes) Plus series). The primary antibodies included biotinylated NeuN (EMD MILLIPORE® (pharmaceuticals and chemicals), MAB377B, 1:500), rat GFAP (FISHER SCIENTIFIC® (laboratory reagents), 130300, 1:500), rabbit Iba1 (FUJIFILM® (camera components) Wako Chemicals, 019-19741, 1:500), rat CD68 (BIO-RAD®, (electrophoresis and chromatography materials) MCA1957, 1:500), goat SOX9 (R&D SYSTEMS® (biological reagents), AF3075, 1:500), and rabbit anti-5-HT (ImmunoStar, 20080, 1:500). Sections were stained with DAPI (1:5000, Millipore Sigma) to visualize the nucleus. The images were acquired using VS120 Virtual Slide Microscope (Olympus) and Axio Observer 7 (ZEISS® (optical products)) and analyzed with QuPath 0.4.3. The contour (polygonal) tool in the Zen 3.2 (Carl Zeiss AG, Jena, Germany) software was used to trace and measure lesion and cavity size. The lesion size was measured by tracing the glial scar border labeled with GFAP surrounding a DAPI^+ inner region. Cavity size was measured by measuring the region within the spinal cord without any visible nuclei yet surrounded by GFAP labeled glial scar. Three spinal cord sections per animal were imaged and analyzed. The 3 sections included the section containing the largest lesion size along with sections 300 μm rostral and caudal. Images were quantified using QuPath software. Eight boxes with a width of 200 μm were drawn both rostral and caudal of the injury epicenter. A contour polygon was made around the spinal cord in each of the sixteen boxes. Fluorescent intensity and cell counting was conducted using automated QuPath software. Histological analysis on liver tissue was conducted by sectioning the left lobe of the liver into 8 μm-thick transverse sections. […] Collagen accumulation was quantified using automated QuPath software to determine the extent of fibrosis.

C-DIRG-C BODIPY® (fluorescent dye) [5c(i)]
artificial wound closure [1]: closing at an expedited rate
number of SOX9′ cells ([2]; around the injury site): reduced
prevalence of CD68+ cells ([2]; around the injury site): significantly reduced
CD68 immunoreactivity ([2]; at the injury site): significantly reduced
serotonergic (5-HT) axon immunoreactivity ([2]; caudal to the injury site): increased
IBA1 immunoreactivity ([2]; spinal cord): reduced
